Data on nine compounds can be found in publication PMC2902711 (Toxicon : official journal of the International Society on …, 2010).

Structures are written as SMILES. pIC50: −log10 of the molar value. Read-outs that look alike come from different tables or passages of the source.

One data set deals with RTA. The following applies: read-out: IC50 for RTA; cited from earlier work.
The target in data set [1] is Shiga toxin type 1 subunit A (StxA1) (Bacteriophage H30, UniProt P10149). The data set can be described thus: biochemical. The class given is biochemical, Escherichia coli.
Sequence of Shiga toxin type 1 subunit A (StxA1) (P10149 23-273 limits assumed): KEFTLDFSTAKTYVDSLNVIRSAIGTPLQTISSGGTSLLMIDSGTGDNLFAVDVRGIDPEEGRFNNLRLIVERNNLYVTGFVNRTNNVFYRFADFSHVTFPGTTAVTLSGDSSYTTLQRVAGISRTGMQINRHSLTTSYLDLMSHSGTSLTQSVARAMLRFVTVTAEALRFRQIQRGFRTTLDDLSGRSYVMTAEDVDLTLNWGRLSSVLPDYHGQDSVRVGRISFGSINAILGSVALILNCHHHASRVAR
A further data set relates to Vero cells. The following applies: for concentrations at which the compound was itself cytotoxic: African green monkey.

As for `Cc1nc2c(=O)[nH]c(N)nc2o1` [8-methyl-9-oxaguanine], the pIC50 in the data set on RTA is ~3.40. As for `Cc1ccc(/C=C/C(=O)NC2CCCc3ccccc32)o1` (stereo not drawn) [Compound 1, (E)-3-(5-methylfuran-2-yl)-N-(1,2,3,4-tetrahydronaphthalen-1-yl)prop-2-enamide], in data set [1], the pIC50 was ~3.15. Moreover, in the data set on Vero cells, the “cytotoxicity of the compound itself” value was “did not exhibit significant cytotoxicity”. On to `CC(C)Nc1nc(C#N)nc(NC(C)C)n1` [Compound 2, 4,6-bis(propan-2-ylamino)-1,3,5-triazine-2-carbonitrile], for which the “cytotoxicity of the compound itself” value with Vero cells was “moderately cytotoxic”. For `COC(=O)C(C)N1C(=O)S/C(=C/c2ccc(N3CCCCCC3)o2)C1=O` (stereo not drawn) [Compound 3, methyl 2-[(5E)-5-[[5-(azepan-1-yl)furan-2-yl]methylidene]-2,4-dioxo-1,3-thiazolidin-3-yl]propanoate], the “concentrations at which the compound was itself cytotoxic” value (from here on “concentrations”) in the data set with Vero cells is listed as “less than 20 μM”. As for `CS(=O)(=O)c1nc2ccccc2n1Cc1cccc2ccccc12` [Compound 4, 2-methylsulfonyl-1-(naphthalen-1-ylmethyl)benzimidazole], in the data set on Vero cells, the “concentrations” value was > 30 µM. Take `O=C(OCc1ccc(F)cc1)c1cc(-c2ccco2)nc2ccccc12` [Compound 8, 4-fluorophenyl methyl 2-(furan-2-yl)quinoline-4-carboxylate]: the pIC50 is 4.40 in data set [1] (read-out: StxA1 IC50) and ~4.40 in data set [1] (read-out: apparent IC50 for StxA1).

As to `O=C(CSc1nnc[nH]1)N(Cc1ccc(F)cc1)C1CCCCC1` [Compound C17-1, N-cyclohexyl-N-[(4-fluorophenyl)methyl]-2-(4H-1,2,4-triazol-3-ylsulfanyl)acetamide], in data set [1], the pIC50 is 3.30. In addition, in the data set with Vero cells, the “concentrations” value is > 100 µM.

In the case of `Nc1cc(O)c(N)c(O)n1` [DDP, 2,5-diamino-4-6-dihydroxypyridine], the pIC50 with RTA is 2.66. For `Nc1nc2ncc(CNc3ccc(C(=O)O)cc3)nc2c(=O)[nH]1` [pteroic acid (PTA), pteroic acid], the pIC50 in the data set on RTA was ~3.22.
